Ends that are not written are not given here.
Key:
[1] = test system: male normotensive Sprague-Dawley rats; test: Effects upon electrolyte excretion (Na+, K+, Cl- in urine) after i.v. bolus in anesthetized rats; format: in vivo, rat; conditions: 3.5 mcg/kg i.v. bolus; for ELECTROLYTE EXCRETION Cl^- / ELECTROLYTE EXCRETION K^+ / ELECTROLYTE EXCRETION Na^+: pooled urine of 8 rats
Protocol: (§1) The diuretic activities of the synthetic natriuretic peptides (SNP) of this invention and their effects upon electrolyte excretion are determined in male normotensive Sprague-Dawley rats. The animals are anesthetized with sodium pentobarbital (55 mg/kg), the femoral vein is cannulated for injection of the test compound and for infusion of Ringer's solution, the bladder is cannulated for urine collection, and the trachea is cannulated to ensure a clean airway. The animals are infused with Ringer's solution at a rate of 1.2 ml/20 min. for 20 minutes, the infusion rate is then decreased to 1.2 ml/hour for a further 20 minutes, and urine collections are started at the end of that period. Three 10-minute collections are taken as control samples, and at the end of the third 10-minute period the SNP to be tested is injected as a bolus over 30 seconds into the femoral vein. Infusion of Ringer's solution at 1.2 ml/hour is continued for the duration of the experiment, and urine samples are collected every 10 minutes over 4 hours, their respective volumes are determined, and the concentrations of Na^+, Cl^-, and K^+ are measured using a NovaBiomedical electrolyte analyzer. The above determinations are done on samples pooled from all animals in a given experiment, and urine flow is calculated as ml/min./kg body weight while electrolyte concentrations are calculated as mmol/l/gm kidney tissue.
(§2) Details of the assay method are described above, and it remains only to be stated that 8 male normotensive Sprague-Dawley rats are used in each group. […] Urine flow then decreases sharply and is at control volumes at about 40 minutes where it remains until about 140 minutes.

[2] = test system: male normotensive Sprague-Dawley rats; test: Diuretic activity: urine flow after i.v. bolus in anesthetized rats; format: in vivo, rat; conditions: 3.5 mcg/kg i.v. bolus; for URINE FLOW: 8 rats
Protocol: as §1, §2

BG-3009: known ANP composed of 28 amino acid residues, identical with the ANP described by Flynn et al. (SLRRSSCFGGRIDRIGAQSGLGCNSFRY; not fully specified; ends and bridges not checked; UniProt P01161 123-150, looked up)
effect on Na^+ excretion, early phase (in words) [1]: sharp increases in Na^+ excretion for the first 30-40 minutes
effect on K^+ and Cl^- excretion (in words) ([1]; early phase): short-lasting decreases in K^+ and Cl^- excretion returning to control values after about 60 minutes
effect on Na^+ and Cl^- excretion, late phase (in words) ([1]; from about 140-160 minutes to 240 minutes): slight increase in Na^+ and Cl^- excretion
ELECTROLYTE EXCRETION Cl^- ([1]; 10 min after injection): 10.1 mmol/l./gm. kidney tissue
ELECTROLYTE EXCRETION K^+ ([1]; 10 min after injection): 1.5 mmol/l./gm. kidney tissue
ELECTROLYTE EXCRETION Na^+ ([1]; 10 min after injection): 10.0 mmol/l./gm. kidney tissue
ELECTROLYTE EXCRETION Cl^- ([1]; 20 min after injection): 12.8 mmol/l./gm. kidney tissue
ELECTROLYTE EXCRETION K^+ ([1]; 20 min after injection): 2.4 mmol/l./gm. kidney tissue
ELECTROLYTE EXCRETION Na^+ ([1]; 20 min after injection): 13.2 mmol/l./gm. kidney tissue
ELECTROLYTE EXCRETION Cl^- ([1]; 30 min after injection): 12.7 mmol/l./gm. kidney tissue
ELECTROLYTE EXCRETION K^+ ([1]; 30 min after injection): 4.9 mmol/l./gm. kidney tissue
ELECTROLYTE EXCRETION Na^+ ([1]; 30 min after injection): 12.4 mmol/l./gm. kidney tissue
ELECTROLYTE EXCRETION Cl^- ([1]; 40 min after injection): 13.0 mmol/l./gm. kidney tissue
ELECTROLYTE EXCRETION K^+ ([1]; 40 min after injection): 5.6 mmol/l./gm. kidney tissue
ELECTROLYTE EXCRETION Na^+ ([1]; 40 min after injection): 11.1 mmol/l./gm. kidney tissue
ELECTROLYTE EXCRETION Cl^- ([1]; 50 min after injection): 14.0 mmol/l./gm. kidney tissue
ELECTROLYTE EXCRETION K^+ ([1]; 50 min after injection): 6.6 mmol/l./gm. kidney tissue
ELECTROLYTE EXCRETION Na^+ ([1]; 50 min after injection): 8.8 mmol/l./gm. kidney tissue
ELECTROLYTE EXCRETION Cl^- ([1]; 60 min after injection): 13.5 mmol/l./gm. kidney tissue
ELECTROLYTE EXCRETION K^+ ([1]; 60 min after injection): 7.4 mmol/l./gm. kidney tissue
ELECTROLYTE EXCRETION Na^+ ([1]; 60 min after injection): 7.8 mmol/l./gm. kidney tissue
ELECTROLYTE EXCRETION Cl^- ([1]; 70 min after injection): 13.7 mmol/l./gm. kidney tissue
ELECTROLYTE EXCRETION K^+ ([1]; 70 min after injection): 7.7 mmol/l./gm. kidney tissue
ELECTROLYTE EXCRETION Na^+ ([1]; 70 min after injection): 7.1 mmol/l./gm. kidney tissue
ELECTROLYTE EXCRETION Cl^- ([1]; 80 min after injection): 13.0 mmol/l./gm. kidney tissue
ELECTROLYTE EXCRETION K^+ ([1]; 80 min after injection): 7.9 mmol/l./gm. kidney tissue
ELECTROLYTE EXCRETION Na^+ ([1]; 80 min after injection): 6.5 mmol/l./gm. kidney tissue
ELECTROLYTE EXCRETION Cl^- ([1]; 90 min after injection): 13.3 mmol/l./gm. kidney tissue
ELECTROLYTE EXCRETION K^+ ([1]; 90 min after injection): 8.0 mmol/l./gm. kidney tissue
ELECTROLYTE EXCRETION Na^+ ([1]; 90 min after injection): 6.4 mmol/l./gm. kidney tissue
ELECTROLYTE EXCRETION Cl^- ([1]; 100 min after injection): 13.3 mmol/l./gm. kidney tissue
ELECTROLYTE EXCRETION K^+ ([1]; 100 min after injection): 8.2 mmol/l./gm. kidney tissue
ELECTROLYTE EXCRETION Na^+ ([1]; 100 min after injection): 6.3 mmol/l./gm. kidney tissue
ELECTROLYTE EXCRETION Cl^- ([1]; 110 min after injection): 13.1 mmol/l./gm. kidney tissue
ELECTROLYTE EXCRETION K^+ ([1]; 110 min after injection): 8.2 mmol/l./gm. kidney tissue
ELECTROLYTE EXCRETION Na^+ ([1]; 110 min after injection): 6.5 mmol/l./gm. kidney tissue
ELECTROLYTE EXCRETION Cl^- ([1]; 120 min after injection): 13.7 mmol/l./gm. kidney tissue
ELECTROLYTE EXCRETION K^+ ([1]; 120 min after injection): 8.5 mmol/l./gm. kidney tissue
ELECTROLYTE EXCRETION Na^+ ([1]; 120 min after injection): 6.7 mmol/l./gm. kidney tissue
ELECTROLYTE EXCRETION Cl^- ([1]; 130 min after injection): 13.6 mmol/l./gm. kidney tissue
ELECTROLYTE EXCRETION K^+ ([1]; 130 min after injection): 8.6 mmol/l./gm. kidney tissue
ELECTROLYTE EXCRETION Na^+ ([1]; 130 min after injection): 6.6 mmol/l./gm. kidney tissue
ELECTROLYTE EXCRETION Cl^- ([1]; 140 min after injection): 14.8 mmol/l./gm. kidney tissue
ELECTROLYTE EXCRETION K^+ ([1]; 140 min after injection): 9.0 mmol/l./gm. kidney tissue
ELECTROLYTE EXCRETION Na^+ ([1]; 140 min after injection): 7.0 mmol/l./gm. kidney tissue
ELECTROLYTE EXCRETION Cl^- ([1]; 150 min after injection): 15.2 mmol/l./gm. kidney tissue
ELECTROLYTE EXCRETION K^+ ([1]; 150 min after injection): 9.4 mmol/l./gm. kidney tissue
ELECTROLYTE EXCRETION Na^+ ([1]; 150 min after injection): 7.3 mmol/l./gm. kidney tissue
ELECTROLYTE EXCRETION Cl^- ([1]; 160 min after injection): 14.2 mmol/l./gm. kidney tissue
ELECTROLYTE EXCRETION K^+ ([1]; 160 min after injection): 9.4 mmol/l./gm. kidney tissue
ELECTROLYTE EXCRETION Na^+ ([1]; 160 min after injection): 7.4 mmol/l./gm. kidney tissue
ELECTROLYTE EXCRETION Cl^- ([1]; 170 min after injection): 14.4 mmol/l./gm. kidney tissue
ELECTROLYTE EXCRETION K^+ ([1]; 170 min after injection): 9.2 mmol/l./gm. kidney tissue
ELECTROLYTE EXCRETION Na^+ ([1]; 170 min after injection): 7.7 mmol/l./gm. kidney tissue
ELECTROLYTE EXCRETION Cl^- ([1]; 180 min after injection): 14.8 mmol/l./gm. kidney tissue
ELECTROLYTE EXCRETION K^+ ([1]; 180 min after injection): 9.1 mmol/l./gm. kidney tissue
ELECTROLYTE EXCRETION Na^+ ([1]; 180 min after injection): 8.3 mmol/l./gm. kidney tissue
ELECTROLYTE EXCRETION Cl^- ([1]; 190 min after injection): 14.4 mmol/l./gm. kidney tissue
ELECTROLYTE EXCRETION K^+ ([1]; 190 min after injection): 8.7 mmol/l./gm. kidney tissue
ELECTROLYTE EXCRETION Na^+ ([1]; 190 min after injection): 8.7 mmol/l./gm. kidney tissue
ELECTROLYTE EXCRETION Cl^- ([1]; 200 min after injection): 14.7 mmol/l./gm. kidney tissue
ELECTROLYTE EXCRETION K^+ ([1]; 200 min after injection): 8.5 mmol/l./gm. kidney tissue
ELECTROLYTE EXCRETION Na^+ ([1]; 200 min after injection): 9.2 mmol/l./gm. kidney tissue
ELECTROLYTE EXCRETION Cl^- ([1]; 210 min after injection): 15.0 mmol/l./gm. kidney tissue
ELECTROLYTE EXCRETION K^+ ([1]; 210 min after injection): 8.4 mmol/l./gm. kidney tissue
ELECTROLYTE EXCRETION Na^+ ([1]; 210 min after injection): 9.6 mmol/l./gm. kidney tissue
ELECTROLYTE EXCRETION Cl^- ([1]; 220 min after injection): 15.3 mmol/l./gm. kidney tissue
ELECTROLYTE EXCRETION K^+ ([1]; 220 min after injection): 8.3 mmol/l./gm. kidney tissue
ELECTROLYTE EXCRETION Na^+ ([1]; 220 min after injection): 9.4 mmol/l./gm. kidney tissue
ELECTROLYTE EXCRETION Cl^- ([1]; 230 min after injection): 14.8 mmol/l./gm. kidney tissue
ELECTROLYTE EXCRETION K^+ ([1]; 230 min after injection): 8.3 mmol/l./gm. kidney tissue
ELECTROLYTE EXCRETION Na^+ ([1]; 230 min after injection): 9.2 mmol/l./gm. kidney tissue
ELECTROLYTE EXCRETION Cl^- ([1]; 240 min after injection): 15.7 mmol/l./gm. kidney tissue
ELECTROLYTE EXCRETION K^+ ([1]; 240 min after injection): 8.5 mmol/l./gm. kidney tissue
ELECTROLYTE EXCRETION Na^+ ([1]; 240 min after injection): 9.2 mmol/l./gm. kidney tissue
effect on urine flow, late phase (in words) ([2]; from 150 minutes (BG-3009: after 130 minutes) to the end of the experiment): hardly noticeable and may not be significant
effect on urine flow, early phase (in words) ([2]; from injection up to 130-140 minutes): shows similar effects up to 130 minutes
URINE FLOW ([2]; 10 min after injection): 333.7 ml./min./kg. body wt × 10^-3
URINE FLOW ([2]; 20 min after injection): 55.7 ml./min./kg. body wt × 10^-3
URINE FLOW ([2]; 30 min after injection): 23.3 ml./min./kg. body wt × 10^-3
URINE FLOW ([2]; 40 min after injection): 16.4 ml./min./kg. body wt × 10^-3
URINE FLOW ([2]; 50 min after injection): 16.9 ml./min./kg. body wt × 10^-3
URINE FLOW ([2]; 60 min after injection): 16.7 ml./min./kg. body wt × 10^-3
URINE FLOW ([2]; 70 min after injection): 16.4 ml./min./kg. body wt × 10^-3
URINE FLOW ([2]; 80 min after injection): 16.4 ml./min./kg. body wt × 10^-3
URINE FLOW ([2]; 90 min after injection): 15.2 ml./min./kg. body wt × 10^-3
URINE FLOW ([2]; 100 min after injection): 16.0 ml./min./kg. body wt × 10^-3
URINE FLOW ([2]; 110 min after injection): 17.2 ml./min./kg. body wt × 10^-3
URINE FLOW ([2]; 120 min after injection): 17.6 ml./min./kg. body wt × 10^-3
URINE FLOW ([2]; 130 min after injection): 23.4 ml./min./kg. body wt × 10^-3
URINE FLOW ([2]; 140 min after injection): 22.6 ml./min./kg. body wt × 10^-3
URINE FLOW ([2]; 150 min after injection): 21.4 ml./min./kg. body wt × 10^-3
URINE FLOW ([2]; 160 min after injection): 19.7 ml./min./kg. body wt × 10^-3
URINE FLOW ([2]; 170 min after injection): 19.9 ml./min./kg. body wt × 10^-3
URINE FLOW ([2]; 180 min after injection): 20.5 ml./min./kg. body wt × 10^-3
URINE FLOW ([2]; 190 min after injection): 22.3 ml./min./kg. body wt × 10^-3
URINE FLOW ([2]; 200 min after injection): 22.3 ml./min./kg. body wt × 10^-3
URINE FLOW ([2]; 210 min after injection): 20.7 ml./min./kg. body wt × 10^-3
URINE FLOW ([2]; 220 min after injection): 22.7 ml./min./kg. body wt × 10^-3
URINE FLOW ([2]; 230 min after injection): 28.6 ml./min./kg. body wt × 10^-3
URINE FLOW ([2]; 240 min after injection): 25.9 ml./min./kg. body wt × 10^-3
